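Growth conditions: 96-well plates. Treatment: test compound, 48 hours, 5 concentrations. Analysis: linear interpolation between bracketing concentrations; unreached endpoints set to highest concentration. Abbreviation: GI50, concentration required for 50% inhibition of growth. TGI: concentration producing complete growth inhibition.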
Assays:
Experiment in all cases: inhibition of tumour cell growth, NCI panel, 48 h
786-0 renal = test system: 786-0 renal
A498 renal = test system: A498 renal
A549 NSCLC = test system: A549 NSCLC
ACHN renal = test system: ACHN renal
BT-549 breast = test system: BT-549 breast
CAKI-1 renal = test system: CAKI-1 renal
CCRF-CEM leukemia = test system: CCRF-CEM leukemia
COLO 205 colon = test system: COLO 205 colon
DU-145 prostate = test system: DU-145 prostate
HCC-2998 colon = test system: HCC-2998 colon
HCT-116 colon = test system: HCT-116 colon
HCT-15 colon = test system: HCT-15 colon
HL-60(TB) leukemia = test system: HL-60(TB) leukemia
HOP-62 NSCLC = test system: HOP-62 NSCLC
HOP-92 NSCLC = test system: HOP-92 NSCLC
HS 578T breast = test system: HS 578T breast
HT29 colon = test system: HT29 colon
IGROV1 ovarian = test system: IGROV1 ovarian
K-562 leukemia = test system: K-562 leukemia
KM12 colon = test system: KM12 colon
LOX IMVI melanoma = test system: LOX IMVI melanoma
M14 melanoma = test system: M14 melanoma
MALME-3M melanoma = test system: MALME-3M melanoma
MCF7 breast = test system: MCF7 breast
MDA-MB-231 breast = test system: MDA-MB-231 breast
MDA-MB-435 = test system: MDA-MB-435
MOLT-4 leukemia = test system: MOLT-4 leukemia
NCI-H226 lung = test system: NCI-H226 lung
NCI-H23 lung = test system: NCI-H23 lung
NCI-H460 lung = test system: NCI-H460 lung
NCI-H522 lung = test system: NCI-H522 lung
NCI/ADR-RES ovarian = test system: NCI/ADR-RES ovarian
OVCAR-3 ovarian = test system: OVCAR-3 ovarian
OVCAR-4 ovarian = test system: OVCAR-4 ovarian
OVCAR-5 ovarian = test system: OVCAR-5 ovarian
OVCAR-8 ovarian = test system: OVCAR-8 ovarian
PC-3 prostate = test system: PC-3 prostate
RPMI-8226 leukemia = test system: RPMI-8226 leukemia
RXF 393 renal = test system: RXF 393 renal
SF-268 CNS = test system: SF-268 CNS
SF-295 CNS = test system: SF-295 CNS
SF-539 CNS = test system: SF-539 CNS
SK-MEL-2 melanoma = test system: SK-MEL-2 melanoma
SK-MEL-28 melanoma = test system: SK-MEL-28 melanoma
SK-MEL-5 melanoma = test system: SK-MEL-5 melanoma
SK-OV-3 ovarian = test system: SK-OV-3 ovarian
SN12C renal = test system: SN12C renal
SNB-19 CNS = test system: SNB-19 CNS
SNB-75 CNS = test system: SNB-75 CNS
SR leukemia = test system: SR leukemia
SW-620 colon = test system: SW-620 colon
T-47D breast = test system: T-47D breast
TK-10 renal = test system: TK-10 renal
U251 CNS = test system: U251 CNS
UACC-257 melanoma = test system: UACC-257 melanoma
UACC-62 melanoma = test system: UACC-62 melanoma
UO-31 renal = test system: UO-31 renal

## COc1cc(NCCN=C(N)NC(N)=NC(C)C)c2ncccc2c1
786-0 renal
  GI50: > 88.8 µM
  TGI: > 100 µM
A498 renal
  GI50: > 58.1 µM
  TGI: > 100 µM
A549 NSCLC
  GI50: 37.3 µM
  TGI: > 100 µM
ACHN renal
  GI50: > 100 µM
  TGI: > 100 µM
BT-549 breast
  GI50: 9.66 µM
  TGI: 29.4 µM
CAKI-1 renal
  GI50: > 100 µM
  TGI: > 100 µM
CCRF-CEM leukemia
  GI50: 16.4 µM
  TGI: > 100 µM
COLO 205 colon
  GI50: 1.7 µM
  TGI: 7.95 µM
DU-145 prostate
  GI50: 38.3 µM
  TGI: > 100 µM
HCC-2998 colon
  GI50: 6.61 µM
  TGI: 50.9 µM
HCT-116 colon
  GI50: 3.63 µM
  TGI: > 100 µM
HCT-15 colon
  GI50: > 86 µM
  TGI: > 100 µM
HL-60(TB) leukemia
  GI50: 14.3 µM
  TGI: 39.6 µM
HOP-62 NSCLC
  GI50: 28.5 µM
  TGI: > 100 µM
HOP-92 NSCLC
  GI50: 3.59 µM
  TGI: 31.6 µM
HS 578T breast
  GI50: 13 µM
  TGI: > 75.1 µM
HT29 colon
  GI50: 7.91 µM
  TGI: > 100 µM
IGROV1 ovarian
  GI50: 1.37 µM
  TGI: > 24.8 µM
K-562 leukemia
  GI50: 10.7 µM
  TGI: > 100 µM
KM12 colon
  GI50: 3.53 µM
  TGI: > 41.2 µM
LOX IMVI melanoma
  GI50: 20.1 µM
  TGI: 94.8 µM
M14 melanoma
  GI50: 22.6 µM
  TGI: > 100 µM
MALME-3M melanoma
  GI50: 1.6 µM
  TGI: 6.71 µM
MCF7 breast
  GI50: 0.0297 µM
  TGI: 0.116 µM
MDA-MB-231 breast
  GI50: 3.17 µM
  TGI: 21.4 µM
MDA-MB-435
  GI50: 18.6 µM
  TGI: 41.9 µM
MOLT-4 leukemia
  GI50: 25 µM
  TGI: > 100 µM
NCI-H226 lung
  GI50: 39.7 µM
  TGI: > 100 µM
NCI-H23 lung
  GI50: 3.25 µM
  TGI: 15.7 µM
NCI-H460 lung
  GI50: 5.67 µM
  TGI: > 57.6 µM
NCI-H522 lung
  GI50: 3.61 µM
  TGI: 40.7 µM
NCI/ADR-RES ovarian
  GI50: > 100 µM
  TGI: > 100 µM
OVCAR-3 ovarian
  GI50: 1.06 µM
  TGI: 23.1 µM
OVCAR-4 ovarian
  GI50: 0.0708 µM
  TGI: 1.23 µM
OVCAR-5 ovarian
  GI50: 11.2 µM
  TGI: 39.3 µM
OVCAR-8 ovarian
  GI50: 22.6 µM
  TGI: > 100 µM
PC-3 prostate
  GI50: 8.96 µM
  TGI: > 100 µM
RPMI-8226 leukemia
  GI50: 15.5 µM
  TGI: > 76.4 µM
RXF 393 renal
  GI50: > 38.5 µM
  TGI: > 100 µM
SF-268 CNS
  GI50: 3.98 µM
  TGI: > 100 µM
SF-295 CNS
  GI50: > 90.9 µM
  TGI: > 100 µM
SF-539 CNS
  GI50: 4.06 µM
  TGI: 20 µM
SK-MEL-2 melanoma
  GI50: 1.99 µM
  TGI: 7.36 µM
SK-MEL-28 melanoma
  GI50: 14.1 µM
  TGI: > 83.8 µM
SK-MEL-5 melanoma
  GI50: 3.4 µM
  TGI: 11.7 µM
SK-OV-3 ovarian
  GI50: 48.8 µM
  TGI: > 100 µM
SN12C renal
  GI50: 3.47 µM
  TGI: 18.2 µM
SNB-19 CNS
  GI50: 9.18 µM
  TGI: > 100 µM
SNB-75 CNS
  GI50: 2.48 µM
  TGI: 13.8 µM
SR leukemia
  GI50: 15 µM
  TGI: > 100 µM
SW-620 colon
  GI50: 15.4 µM
  TGI: > 100 µM
T-47D breast
  GI50: 1.44 µM
  TGI: 5.12 µM
TK-10 renal
  GI50: 11.3 µM
  TGI: 69.9 µM
U251 CNS
  GI50: 12.4 µM
  TGI: > 100 µM
UACC-257 melanoma
  GI50: 11 µM
  TGI: 32.5 µM
UACC-62 melanoma
  GI50: 18.9 µM
  TGI: 94.6 µM
UO-31 renal
  GI50: > 100 µM
  TGI: > 100 µM

Reference: PubChem BioAssay (NCI)
